{"source": "paper PMC6435570", "about": "“Zafirlukast Is a Dual Modulator of Human Soluble Epoxide Hydrolase and Peroxisome Proliferator-Activated Receptor γ” (Frontiers in Pharmacology, 2019)", "tested_on": "PPARγ2 phosphorylation at serine 273", "test": "TNFα triggered PPARγ Ser273 phosphorylation in 3T3-L1 adipocytes (Western Blot)", "type": "cell-based, murine", "details": "zafirlukast 1 or 10 μM or rosiglitazone 2 μM for 45 min, then TNFα 50 ng/mL 30 min", "protocol": "Total 3T3-L1 or HEP-G2 cell lysates were prepared in lysis buffer (20 mM Tris-HCl, pH 7.4, 150 mM NaCl, 2 mM EDTA, 1% Triton X-100, 0.5% NP-40) supplemented with protease and phosphatase inhibitors (PhosSTOP^TM + cOmplete^TM Mini, Roche Diagnostics GmbH, Mannheim, Germany). Protein concentrations were quantified using the Pierce^TM BCA Protein Assay Kit (Thermo Scientific, Waltham, MA, United States). Total protein (30 μg/lane) was separated by SDS-polyacrylamide gel electrophoresis and transferred to nitrocellulose membranes (GE Healthcare Life Sciences, Little Chalfont, United Kingdom). Membranes were blocked with Odyssey blocking reagent (LI-COR Biosciences, Bad Homburg, Germany) for 1 h at room temperature. […] Afterwards, membranes were washed and incubated with fluorescence conjugated secondary antibodies (IRDye, LI-COR Biosciences, Bad Homburg, Germany). […] The density of the immune reactive bands was analyzed using the Image Studio 5.2 software (LI-COR Biosciences, Bad Homburg, Germany).\nWe induced this post-translational modification by short-term treatment of the differentiated cells with the cytokine TNFα, generating a pro-inflammatory milieu. […] For this, we used an assay system in which the recruitment of the fluorescence-tagged PPARγ coactivator CBP to the PPARγ-LBD was assessed by time-resolved FRET technique in presence and absence of rosiglitazone.", "note": "Entries after “also recorded” stand apart in the source; their conditions may differ."}
{"smiles": "COc1cc(C(=O)NS(=O)(=O)c2ccccc2C)ccc1Cc1cn(C)c2ccc(NC(=O)OC3CCCC3)cc12", "note": "[Zafirlukast, zafirlukast]", "values": [{"measurement": "TNFα induced phosphorylation of PPARγ2 at serine 273", "value": "inhibited this phosphorylation; also recorded: completely revert this phosphorylation"}]}
